# PMC11280027, “Conquering the beyond Rule of Five Space with an Optimized High-Throughput Caco-2 Assay to Close Gaps in Absorption Prediction” (Pharmaceutics, 2024)
# Test system: not given
# Test: not given
# Details: human fraction absorbed; rounded to two significant figures; ref [17]; cited from earlier work
row,Structure (SMILES),Observed Human fa
1,CN(C)CCc1c[nH]c2ccc(C[C@H]3COC(=O)N3)cc12 [Zolmitriptan],0.92
2,CC(C)(C)NC(=O)[C@@H]1CN(Cc2cccnc2)CCN1C[C@@H](O)C[C@@H](Cc1ccccc1)C(=O)N[C@H]1c2ccccc2C[C@H]1O [Indinavir],0.63
3,COc1ccccc1Oc1c(NS(=O)(=O)c2ccc(C(C)(C)C)cc2)nc(-c2ncccn2)nc1OCCO [Bosentan],0.70
4,CC(C)(C)NC(=O)N[C@H](C(=O)N1C[C@H]2[C@@H]([C@H]1C(=O)NC(CC1CCC1)C(=O)C(N)=O)C2(C)C)C(C)(C)C (stereo partly shown) [Boceprevir],0.92
5,C[C@]12C[C@H](O)[C@H]3[C@@H](CCC4=CC(=O)CC[C@@]43C)[C@@H]1CC[C@@H]2C(=O)CO [Corticosterone],1.0
6,COCCOC(=O)C1=C(C)NC(C)=C(C(=O)OC(C)C)C1c1cccc([N+](=O)[O-])c1 (stereo not shown) [Nimodipine],1.0
7,COc1ccc2c(c1)C(=O)N(CCc1ccc(S(=O)(=O)NC(=O)NC3CCCCC3)cc1)C(=O)C2(C)C [Gliquidone],0.95
8,O=C(O)COCCN1CCN(C(c2ccccc2)c2ccc(Cl)cc2)CC1 (stereo not shown) [Cetirizine],0.73
9,CNC(=C[N+](=O)[O-])NCCSCc1ccc(CN(C)C)o1 [Ranitidine],0.56
10,CN(CCOc1ccc(CC2SC(=O)NC2=O)cc1)c1ccccn1 (stereo not shown) [Rosiglitazone],1.0
11,CN1CCC[C@H]1c1cccnc1 [Nicotine],1.0
12,CNC(=O)Oc1ccc2c(c1)[C@]1(C)CCN(C)[C@@H]1N2C [Physostigmine],0.050
13,CNS(=O)(=O)Cc1ccc2[nH]cc(CCN(C)C)c2c1 [Sumatriptan],0.58
14,COc1ccc(C(CN(C)C)C2(O)CCCCC2)cc1 (stereo not shown) [Venlafaxine],0.96
15,C#CCN(C)[C@H](C)Cc1ccccc1 [Selegiline],1.0
16,CN(Cc1cnc2nc(N)nc(N)c2n1)c1ccc(C(=O)N[C@@H](CCC(=O)O)C(=O)O)cc1 [Methotrexate],0.64
17,CNCCC=C1c2ccccc2CCc2ccccc21 [Nortriptyline],1.0
18,CN(C)CCc1c[nH]c2ccc(Cn3cncn3)cc12 [Rizatriptan],0.90
19,OCCN(CCO)c1nc(N2CCCCC2)c2nc(N(CCO)CCO)nc(N3CCCCC3)c2n1 [Dipyridamole],0.56
20,CC[C@H]1OC(=O)[C@H](C)[C@@H](O[C@H]2C[C@@](C)(OC)[C@@H](O)[C@H](C)O2)[C@H](C)[C@@H](O[C@@H]2O[C@H](C)C[C@H](N(C)C)[C@H]2O)[C@](C)(O)C[C@@H](C)/C(=N\OCOCCOC)[C@H](C)[C@@H](O)[C@]1(C)O [Roxithromycin],0.86
21,NS(=O)(=O)c1cc(C(=O)O)c(NCc2ccco2)cc1Cl [Furosemide],0.61
22,N=C(N)NC(=O)c1nc(Cl)c(N)nc1N [Amiloride],0.53
23,O=C(O)Cc1ccccc1Nc1c(Cl)cccc1Cl [Diclofenac],0.97
24,CC(C)CN(C[C@@H](O)[C@H](Cc1ccccc1)NC(=O)O[C@H]1CCOC1)S(=O)(=O)c1ccc(N)cc1 [Amprenavir],0.76

row,Structure (SMILES),Observed Human fa
1,OC(CCN1CCCCC1)(c1ccccc1)C1CCCCC1 (stereo not shown) [Trihexyphenidyl],1.0
2,CCN(CC)CCNC(=O)c1cc(Cl)c(N)cc1OC [Metoclopramide],0.89
3,CN(C)CCC=C1c2ccccc2COc2ccccc21 [Doxepin],0.76
4,CC(C)c1nc(N(C)S(C)(=O)=O)nc(-c2ccc(F)cc2)c1/C=C/[C@@H](O)C[C@@H](O)CC(=O)O [Rosuvastatin],0.35
5,Nc1nnc(-c2cccc(Cl)c2Cl)c(N)n1 [Lamotrigine],0.98
6,O=C(NCCN1CCOCC1)c1ccc(Cl)cc1 [Moclobemide],0.85
7,CCOC(=O)C1=C[C@@H](OC(CC)CC)[C@H](NC(C)=O)[C@@H](N)C1 [Oseltamivir],0.75
8,CNS(=O)(=O)CCc1ccc2[nH]cc(C3CCN(C)CC3)c2c1 [Naratriptan],0.70
9,O=C1Cc2cc(CCN3CCN(c4nsc5ccccc45)CC3)c(Cl)cc2N1 [Ziprasidone],0.63
10,Nc1ccc(/N=N/c2ccccc2)c(N)n1 [Phenazopyridine],0.90
11,CC(=O)N1CCN(c2ccc(OCC3COC(Cn4ccnc4)(c4ccc(Cl)cc4Cl)O3)cc2)CC1 (stereo not shown) [Ketoconazole],0.76
12,O=C(O)c1cc(/N=N/c2ccc(S(=O)(=O)Nc3ccccn3)cc2)ccc1O [Sulfasalazine],0.33
13,O=C1NC(=O)C(c2ccccc2)(c2ccccc2)N1 [Phenytoin],0.93
14,Cc1cc(=O)n(-c2ccccc2)n1C [Antipyrine],0.98
15,CCN(CCO)CCCC(C)Nc1ccnc2cc(Cl)ccc12 (stereo not shown) [Hydroxychloroquine],0.90
16,Nc1cccc2c1CN(C1CCC(=O)NC1=O)C2=O (stereo not shown) [Lenalidomide],0.90
17,Cc1nccn1CC1CCc2c(c3ccccc3n2C)C1=O (stereo not shown) [Ondansetron],1.0
18,CO[C@H]1/C=C/O[C@@]2(C)Oc3c(C)c(O)c4c(c3C2=O)C2=NC3(CCN(CC(C)C)CC3)NC2=C(NC(=O)/C(C)=C\C=C\[C@H](C)[C@H](O)[C@@H](C)[C@@H](O)[C@@H](C)[C@H](OC(C)=O)[C@@H]1C)C4=O [Rifabutin],0.53
19,O=c1n(CCCN2CCN(c3cccc(Cl)c3)CC2)nc2ccccn12 [Trazodone],0.98
20,CCOC(=O)N1CCC(=C2c3ccc(Cl)cc3CCc3cccnc32)CC1 [Loratadine],0.90
21,CCCc1nc2c(C)cc(-c3nc4ccccc4n3C)cc2n1Cc1ccc(-c2ccccc2C(=O)O)cc1 [Telmisartan],0.82
22,CC[C@H]1OC(=O)[C@H](C)[C@@H](O[C@H]2C[C@@](C)(OC)[C@@H](O)[C@H](C)O2)[C@H](C)[C@@H](O[C@@H]2O[C@H](C)C[C@H](N(C)C)[C@H]2O)[C@](C)(O)C[C@@H](C)CN(C)[C@H](C)[C@@H](O)[C@]1(C)O [Azithromycin],0.43
23,Cc1cccc(C)c1OCC(C)N (stereo not shown) [Mexiletine],0.99

# Test system: not listed separately
# Test: Bidirectional transport study with assay-ready Caco-2 cells, 7-day versus 21-day cultivation (Figure S2)
# Details: human, Caco-2, pH 7.4
row,Structure (SMILES),efflux ratio at 60 min
1,CN/C(=N/CCSCc1nc[nH]c1C)NC#N [Cimetidine],> 2
2,O=C(O)c1cc(/N=N/c2ccc(S(=O)(=O)Nc3ccccn3)cc2)ccc1O [Sulfasalazine],> 2
3,COc1cc2nc(N3CCN(C(=O)c4ccco4)CC3)nc(N)c2cc1OC [Prazosin],> 2

# Test system: Caco-2 cells
# Test: as above
# Details: Caco-2 cells maintained 7 days on transwell plates; ER = Papp,BA/Papp,AB
row,Structure (SMILES),efflux ratio (ER)
1,"C[C@]12CC[C@@H]3c4ccc(OS(=O)(=O)O)cc4CC[C@H]3[C@@H]1CCC2=O [Compound E3S, estrone-3-sulfate]",> 2

# Same assay, conditions: Caco-2 cells maintained 21 days on transwell plates; ER = Papp,BA/Papp,AB
row,Structure (SMILES),efflux ratio (ER)
1,CN/C(=N/CCSCc1nc[nH]c1C)NC#N [Cimetidine],> 2
2,"C[C@]12CC[C@@H]3c4ccc(OS(=O)(=O)O)cc4CC[C@H]3[C@@H]1CCC2=O [Compound E3S, estrone-3-sulfate]",> 2
3,O=C(O)c1cc(/N=N/c2ccc(S(=O)(=O)Nc3ccccn3)cc2)ccc1O [Sulfasalazine],> 2
4,COc1cc2nc(N3CCN(C(=O)c4ccco4)CC3)nc(N)c2cc1OC [Prazosin],> 2
